Activity calls are given as the source filed them. The calls are words filed in the database; no cut-off is given here.
Assays:
[1] = molecular target: T1, Alpha-2A adrenergic receptor (Homo sapiens, UniProt P08913); experiment: Alpha-2A adrenergic receptor agonistic potency as inhibition of forskolin-stimulated synthesis of cyclic adenosine monophosphate; type: functional
T1 sequence (P08913 whole entry): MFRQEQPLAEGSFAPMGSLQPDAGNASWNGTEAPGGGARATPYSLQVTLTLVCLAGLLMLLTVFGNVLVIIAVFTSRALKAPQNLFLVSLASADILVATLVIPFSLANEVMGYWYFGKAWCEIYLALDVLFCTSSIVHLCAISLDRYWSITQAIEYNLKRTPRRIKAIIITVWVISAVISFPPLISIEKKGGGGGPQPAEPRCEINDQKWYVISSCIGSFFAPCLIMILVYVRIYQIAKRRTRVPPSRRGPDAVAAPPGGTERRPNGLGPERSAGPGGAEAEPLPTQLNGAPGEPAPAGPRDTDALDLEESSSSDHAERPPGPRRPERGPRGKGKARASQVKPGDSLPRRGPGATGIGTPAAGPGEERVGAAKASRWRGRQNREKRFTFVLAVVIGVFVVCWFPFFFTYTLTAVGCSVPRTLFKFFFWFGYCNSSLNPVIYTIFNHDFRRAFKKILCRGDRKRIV

[2] = molecular target: T2, Alpha-2C adrenergic receptor (Homo sapiens, UniProt P18825); experiment: Alpha-2C adrenergic receptor agonistic potency as inhibition of forskolin-stimulated cyclic adenosine monophosphate synthesis; type: functional
T2 sequence (P18825 whole entry): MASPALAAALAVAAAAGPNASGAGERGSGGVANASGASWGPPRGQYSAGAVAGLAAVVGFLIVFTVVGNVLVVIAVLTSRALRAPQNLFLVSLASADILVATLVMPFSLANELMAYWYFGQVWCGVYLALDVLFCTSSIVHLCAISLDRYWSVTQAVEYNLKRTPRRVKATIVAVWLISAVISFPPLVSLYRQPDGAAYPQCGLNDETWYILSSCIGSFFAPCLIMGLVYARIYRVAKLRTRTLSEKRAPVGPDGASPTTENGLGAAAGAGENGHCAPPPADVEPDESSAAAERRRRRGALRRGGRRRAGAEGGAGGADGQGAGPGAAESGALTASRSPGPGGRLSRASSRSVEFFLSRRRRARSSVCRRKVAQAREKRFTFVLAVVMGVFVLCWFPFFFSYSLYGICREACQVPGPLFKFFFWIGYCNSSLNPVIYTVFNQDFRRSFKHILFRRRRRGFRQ

[3] = molecular target: T3, Alpha-2B adrenergic receptor (Homo sapiens, UniProt P18089); experiment: Binding affinity for human Alpha-2B adrenergic receptor from cultured Y-1 cells using [3H]rauwolscine; type: cell-based
T3 sequence (P18089 whole entry): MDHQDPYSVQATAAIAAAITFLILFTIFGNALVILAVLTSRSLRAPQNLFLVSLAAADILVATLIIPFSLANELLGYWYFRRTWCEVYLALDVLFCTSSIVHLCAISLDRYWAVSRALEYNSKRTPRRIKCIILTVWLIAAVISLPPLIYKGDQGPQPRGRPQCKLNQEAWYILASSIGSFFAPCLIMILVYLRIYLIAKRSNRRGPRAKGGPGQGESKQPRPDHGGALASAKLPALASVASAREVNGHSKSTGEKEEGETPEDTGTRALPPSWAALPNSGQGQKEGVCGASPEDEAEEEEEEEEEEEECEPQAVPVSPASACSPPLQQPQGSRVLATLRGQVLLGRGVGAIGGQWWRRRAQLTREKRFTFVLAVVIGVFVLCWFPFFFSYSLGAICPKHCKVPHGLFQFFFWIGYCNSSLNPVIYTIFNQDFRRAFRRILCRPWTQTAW

[4] = molecular target: T4, Alpha-2C adrenergic receptor (Homo sapiens) (UniProt P18825); experiment: Inhibitory activity against Alpha-2C adrenergic receptor relative to norepinephrine
T4 sequence (whole entry): T2 sequence (P18825 whole entry)

[5] = molecular target: T3, Alpha-2B adrenergic receptor; experiment: Alpha-2B adrenergic receptor agonistic potency as inhibition of forskolin-stimulated cyclic adenosine monophosphate synthesis; type: functional
[6] = molecular target: T2, Alpha-2C adrenergic receptor; experiment: Binding affinity for human Alpha-2C adrenergic receptor from cultured LM(tk-) cells using [3H]- prazosin
[7] = molecular target: T5, Alpha-1A adrenergic receptor (Homo sapiens, UniProt P35348); experiment: Binding affinity for human Alpha-1A adrenergic receptor from cultured LM(tk-) cells using [3H]-prazosin
T5 sequence (P35348 whole entry): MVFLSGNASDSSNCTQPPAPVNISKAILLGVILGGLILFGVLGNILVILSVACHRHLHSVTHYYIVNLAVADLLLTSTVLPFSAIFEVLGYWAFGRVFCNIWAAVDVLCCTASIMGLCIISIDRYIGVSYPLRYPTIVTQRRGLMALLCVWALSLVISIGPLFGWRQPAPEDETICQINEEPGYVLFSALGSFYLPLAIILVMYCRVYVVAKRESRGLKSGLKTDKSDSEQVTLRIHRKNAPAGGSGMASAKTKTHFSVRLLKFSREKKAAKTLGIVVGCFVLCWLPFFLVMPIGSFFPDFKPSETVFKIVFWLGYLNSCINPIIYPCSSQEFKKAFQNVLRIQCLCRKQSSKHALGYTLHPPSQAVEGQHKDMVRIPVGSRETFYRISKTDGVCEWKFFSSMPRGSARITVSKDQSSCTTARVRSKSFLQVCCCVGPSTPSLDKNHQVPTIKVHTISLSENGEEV

[8] = molecular target: T1, Alpha-2A adrenergic receptor; experiment: Binding affinity for human Alpha-2A adrenergic receptor from cultured LM(tk-) cells using [3H]rauwolscine
[9] = molecular target: T6, Alpha-2A adrenergic receptor (Homo sapiens) (UniProt P08913); experiment: Inhibitory activity against Alpha-2A adrenergic receptor relative to norepinephrine
T6 sequence (whole entry): T1 sequence (P08913 whole entry)

[10] = molecular target: T7, Alpha-1B adrenergic receptor (Homo sapiens, UniProt P35368); experiment: Binding affinity for human Alpha-1B adrenergic receptor from cultured LM(tk-) cells using [3H]prazosin
T7 sequence (P35368 whole entry): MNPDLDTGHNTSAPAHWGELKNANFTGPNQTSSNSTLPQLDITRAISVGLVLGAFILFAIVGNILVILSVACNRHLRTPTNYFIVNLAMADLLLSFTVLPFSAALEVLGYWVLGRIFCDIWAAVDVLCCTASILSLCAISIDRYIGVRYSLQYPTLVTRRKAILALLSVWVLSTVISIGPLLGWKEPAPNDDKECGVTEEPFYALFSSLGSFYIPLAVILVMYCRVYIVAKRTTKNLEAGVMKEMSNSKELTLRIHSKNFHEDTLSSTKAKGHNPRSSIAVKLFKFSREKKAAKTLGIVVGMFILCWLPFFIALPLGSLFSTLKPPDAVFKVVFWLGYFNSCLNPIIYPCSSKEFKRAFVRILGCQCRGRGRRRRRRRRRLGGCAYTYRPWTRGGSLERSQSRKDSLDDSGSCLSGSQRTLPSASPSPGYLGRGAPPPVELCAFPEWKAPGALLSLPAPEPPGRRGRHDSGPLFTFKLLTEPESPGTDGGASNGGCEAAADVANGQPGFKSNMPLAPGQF

[11] = molecular target: T8, Alpha-1D adrenergic receptor (Homo sapiens, UniProt P25100); experiment: Binding affinity for human Alpha-1D adrenergic receptor from cultured LM(tk-) cells using [3H]- prazosin
T8 sequence (P25100 whole entry): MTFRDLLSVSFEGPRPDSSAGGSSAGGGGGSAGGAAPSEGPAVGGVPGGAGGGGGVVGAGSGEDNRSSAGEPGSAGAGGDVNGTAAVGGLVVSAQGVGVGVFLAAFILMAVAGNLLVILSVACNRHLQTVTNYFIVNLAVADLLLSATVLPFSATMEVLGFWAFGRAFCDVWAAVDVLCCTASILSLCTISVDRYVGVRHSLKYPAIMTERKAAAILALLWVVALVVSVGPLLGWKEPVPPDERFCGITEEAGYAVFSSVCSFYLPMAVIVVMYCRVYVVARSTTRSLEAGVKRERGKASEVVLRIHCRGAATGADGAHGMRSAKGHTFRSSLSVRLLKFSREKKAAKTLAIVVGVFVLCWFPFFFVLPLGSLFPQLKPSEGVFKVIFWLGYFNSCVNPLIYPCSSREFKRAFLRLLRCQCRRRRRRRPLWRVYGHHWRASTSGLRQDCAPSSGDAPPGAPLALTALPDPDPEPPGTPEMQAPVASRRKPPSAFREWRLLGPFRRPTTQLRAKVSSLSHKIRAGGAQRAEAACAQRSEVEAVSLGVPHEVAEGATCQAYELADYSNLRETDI

[12] = molecular target: T9, Alpha-2B adrenergic receptor (Homo sapiens) (UniProt P18089); experiment: The Alpha-2B adrenergic receptor agonistic potency for its ability to inhibit forskolin-stimulated synthesis of cyclic adenosine monophosphate at 100 uM concentration; Not active; type: functional
T9 sequence (whole entry): T3 sequence (P18089 whole entry)

[13] = molecular target: T9, Alpha-2B adrenergic receptor (Homo sapiens); experiment: Inhibitory activity against Alpha-2B adrenergic receptor relative to norepinephrine at 100 uM; Not active
[14] = molecular target: T3, Alpha-2B adrenergic receptor; experiment: Binding affinity for human Alpha-2B adrenergic receptor from cultured LM(tk-) cells using [3H]- prazosin
[15] = molecular target: T6, Alpha-2A adrenergic receptor (Homo sapiens); experiment: Inhibitory activity against Alpha-2A adrenergic receptor relative to norepinephrine at 100 uM; Not active
[16] = molecular target: T4, Alpha-2C adrenergic receptor (Homo sapiens); experiment: Inhibitory activity against Alpha-2C adrenergic receptor relative to norepinephrine at 100 uM; Not active
[17] = molecular target: T6, Alpha-2A adrenergic receptor (Homo sapiens); experiment: Alpha-2A adrenergic receptor agonistic potency as inhibition of forskolin-stimulated cyclic adenosine monophosphate synthesis at 100 uM; Not active; type: functional
[18] = molecular target: T4, Alpha-2C adrenergic receptor (Homo sapiens); experiment: Alpha-2C adrenergic receptor agonistic potency as inhibition of forskolin-stimulated cyclic adenosine monophosphate synthesis at 100 uM; Not active; type: functional

Row | SMILES | EC50 [1] [µM] | EC50 [2] [µM] | Ki [3] [µM] | Intrinsic activity [4] | EC50 [5] [µM] | Ki [6] [µM] | Ki [7] [µM] | Ki [8] [µM] | Intrinsic activity [9] | Ki [10] [µM] | Ki [11] [µM] | Log EC50 [12] | Intrinsic activity [13] | Ki [14] [µM] | Intrinsic activity [15] | Intrinsic activity [16] | Log EC50 [17] | Log EC50 [18]
1 | Brc1c(NC2=NCCN2)ccc2c1NCCN2 | 0.00282 | 0.105 | 0.049 | 1 | 0.891 | 0.214 | 1.12 | 0.00646 | 1 | 4.37 | 2.69 |  |  |  |  |  |  | 
2 | CC1CN=C(Nc2ccc3nccnc3c2Br)N1 (stereo not given) | 15.8 | 0.832 | 3.24 | 0.8 |  | 0.646 | > 100 | 3.8 | 0.8 | > 100 | 5.01 | inactive | inactive |  |  |  |  | 
3 | Cc1c(NC2=NCCN2)ccc2nccnc12 | 0.0012 | 0.0141 |  | 1 | 0.0776 | 0.0282 | 1.48 | 0.00724 | 1 | 3.31 | 0.562 |  |  | 0.00891 |  |  |  | 
4 | Brc1c(NC2=NCCN2)ccc2nccnc12 [BRIMONIDINE] |  |  |  | 1 |  |  |  |  | 1 | 5.37 | 0.933 |  |  |  |  |  |  | 
5 | Brc1c(NC2=N[C@@H]3CCCC[C@@H]3N2)ccc2nccnc12 |  |  | 18.2 |  |  | 11.5 | 14.1 | 14.8 |  | 105 | 41.7 | inactive | inactive |  | inactive | inactive | inactive | inactive
